ChEMBL document CHEMBL1201862, “PubChem BioAssay data set” (2004)
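All cell lines were grown in 96-well plates and treated with compound for 48 hours. At the GI50, growth is halved.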 Active and inactive are the calls of the source. Cut-off read from the data, not from the text of the source: active = GI50 up to about 1.1 µM and inactive = higher.

Legend:
Assay in all cases: growth of human tumour cells (NCI), 48 h
[1] = test system: MDA-MB-435
[2] = test system: T47D
[3] = test system: HCT-116
[4] = test system: NCI-H460
[5] = test system: M14
[6] = test system: IGROV-1
[7] = test system: BT-549
[8] = test system: CAKI-1
[9] = test system: RXF 393
[10] = test system: EKVX
[11] = test system: NCI-H226
[12] = test system: MDA-N
[13] = test system: K562
[14] = test system: OVCAR-5
[15] = test system: SK-MEL-5
[16] = test system: MDA-MB-231
[17] = test system: HOP-62
[18] = test system: NCI-H23
[19] = test system: Malme-3M
[20] = test system: DU-145
[21] = test system: HCT-15
[22] = test system: COLO 205
[23] = test system: UACC-257
[24] = test system: OVCAR-3
[25] = test system: PC-3
[26] = test system: OVCAR-8
[27] = test system: NCI/ADR-RES
[28] = test system: KM12
[29] = test system: A549
[30] = test system: UO-31
[31] = test system: SNB-19
[32] = test system: HOP-92
[33] = test system: MCF7
[34] = test system: 786-0
[35] = test system: OVCAR-4
[36] = test system: SK-MEL-2
[37] = test system: NCI-H522
[38] = test system: SN12C
[39] = test system: SR
[40] = test system: SNB-75
[41] = test system: SK-OV-3
[42] = test system: SK-MEL-28
[43] = test system: U-251
[44] = test system: TK-10
[45] = test system: SW-620
[46] = test system: LOX IMVI
[47] = test system: Hs-578T
[48] = test system: A498
[49] = test system: SF-539
[50] = test system: SF-268
[51] = test system: HT-29
[52] = test system: ACHN
[53] = test system: CCRF-CEM
[54] = test system: HCC 2998
[55] = test system: HL-60
[56] = test system: RPMI-8226
[57] = test system: SF-295
[58] = test system: MOLT-4
[59] = test system: UACC-62

NS(=O)(=O)c1ccc(/N=N/c2ccc(O)cc2)cc1
GI50 [1]: 11.3 µM (inactive) | GI50 [2]: 31.3 µM (inactive) | GI50 [3]: 37.3 µM (inactive) | GI50 [4]: 31.1 µM (inactive) | GI50 [5]: 33.2 µM (inactive) | GI50 [6]: 70 µM (inactive) | GI50 [7]: 10.5 µM (inactive) | GI50 [8]: 20.9 µM (inactive) | GI50 [9]: > 100 µM (inactive) | GI50 [10]: 20.7 µM (inactive) | GI50 [11]: 19.3 µM (inactive) | GI50 [12]: 61.9 µM (inactive) | GI50 [13]: 7.46 µM (inactive) | GI50 [14]: > 100 µM (inactive) | GI50 [15]: 28.8 µM (inactive) | GI50 [16]: 64.3 µM (inactive) | GI50 [17]: 92 µM (inactive) | GI50 [18]: 55.6 µM (inactive) | GI50 [19]: > 100 µM (inactive) | GI50 [20]: 49.7 µM (inactive) | GI50 [21]: 59.2 µM | GI50 [22]: 46.3 µM (inactive) | GI50 [23]: 51.2 µM (inactive) | GI50 [24]: 66.4 µM (inactive) | GI50 [25]: 66.7 µM (inactive) | GI50 [26]: 45.3 µM (inactive) | GI50 [27]: 26.8 µM (inactive) | GI50 [28]: 18.6 µM (inactive) | GI50 [29]: 28.3 µM (inactive) | GI50 [30]: 12.6 µM (inactive) | GI50 [31]: 83.2 µM (inactive) | GI50 [32]: 75.3 µM (inactive) | GI50 [33]: 39.4 µM (inactive) | GI50 [34]: > 100 µM (inactive) | GI50 [35]: 43.4 µM (inactive) | GI50 [36]: 32.7 µM (inactive) | GI50 [37]: 33.7 µM (inactive) | GI50 [38]: 64 µM (inactive) | GI50 [39]: 7.13 µM (inactive) | GI50 [40]: 19.1 µM (inactive) | GI50 [41]: > 100 µM (inactive) | GI50 [42]: 21.4 µM (inactive) | GI50 [43]: 61 µM (inactive) | GI50 [44]: > 100 µM (inactive) | GI50 [45]: 44.5 µM (inactive) | GI50 [46]: 6.61 µM (inactive) | GI50 [47]: 61.8 µM (inactive) | GI50 [48]: > 100 µM (inactive) | GI50 [49]: 31.9 µM (inactive) | GI50 [50]: 53.6 µM (inactive) | GI50 [51]: 50.2 µM (inactive) | GI50 [52]: 31.8 µM (inactive) | GI50 [53]: 62.1 µM (inactive) | GI50 [54]: > 100 µM (inactive) | GI50 [55]: 30.1 µM (inactive) | GI50 [56]: 26.5 µM (inactive) | GI50 [57]: 29.9 µM (inactive) | GI50 [58]: 4.25 µM (inactive)

O=C(O)Cc1cccc2c(=O)c3ccccc3oc12
GI50 [1]: > 100 µM (inactive) | GI50 [2]: 19.1 µM (inactive) | GI50 [3]: > 100 µM (inactive) | GI50 [4]: > 100 µM (inactive) | GI50 [5]: > 100 µM (inactive) | GI50 [6]: > 100 µM (inactive) | GI50 [7]: > 100 µM (inactive) | GI50 [8]: > 100 µM (inactive) | GI50 [59]: 24.3 µM (inactive) | GI50 [10]: > 100 µM (inactive) | GI50 [11]: > 100 µM (inactive) | GI50 [12]: > 100 µM (inactive) | GI50 [13]: > 100 µM (inactive) | GI50 [15]: > 100 µM (inactive) | GI50 [16]: > 100 µM (inactive) | GI50 [17]: > 100 µM (inactive) | GI50 [18]: > 100 µM (inactive) | GI50 [19]: > 100 µM (inactive) | GI50 [20]: > 100 µM (inactive) | GI50 [21]: 21.1 µM | GI50 [22]: > 100 µM (inactive) | GI50 [23]: > 100 µM (inactive) | GI50 [24]: > 100 µM (inactive) | GI50 [25]: > 100 µM (inactive) | GI50 [26]: > 100 µM (inactive) | GI50 [27]: > 100 µM (inactive) | GI50 [28]: > 100 µM (inactive) | GI50 [29]: > 100 µM (inactive) | GI50 [30]: > 100 µM (inactive) | GI50 [31]: > 100 µM (inactive) | GI50 [32]: > 100 µM (inactive) | GI50 [33]: > 100 µM (inactive) | GI50 [34]: > 100 µM (inactive) | GI50 [35]: > 100 µM (inactive) | GI50 [36]: 27.3 µM (inactive) | GI50 [37]: 48.5 µM (inactive) | GI50 [38]: > 100 µM (inactive) | GI50 [39]: > 100 µM (inactive) | GI50 [41]: 17.7 µM (inactive) | GI50 [42]: > 100 µM (inactive) | GI50 [43]: > 100 µM (inactive) | GI50 [44]: > 100 µM (inactive) | GI50 [45]: > 100 µM (inactive) | GI50 [46]: > 100 µM (inactive) | GI50 [47]: > 100 µM (inactive) | GI50 [48]: > 100 µM (inactive) | GI50 [49]: > 100 µM (inactive) | GI50 [50]: > 100 µM (inactive) | GI50 [51]: > 100 µM (inactive) | GI50 [52]: > 100 µM (inactive) | GI50 [53]: > 100 µM (inactive) | GI50 [54]: 22 µM (inactive) | GI50 [55]: > 100 µM (inactive) | GI50 [56]: > 100 µM (inactive) | GI50 [57]: > 100 µM (inactive) | GI50 [58]: > 100 µM (inactive)
